Test results as given in ChEMBL document CHEMBL5291721, “A preclinical secondary pharmacology resource illuminates target-adverse drug reaction associations of marketed drugs” (Nat Commun, 2023).

Experiments:
[1] = molecular target: Motilin receptor (Homo sapiens, UniProt O43193)
[2] = molecular target: Sodium-dependent noradrenaline transporter (Homo sapiens, UniProt P23975)
[3] = molecular target: Vasopressin V1a receptor (Homo sapiens, UniProt P37288)
[4] = molecular target: Sodium-dependent dopamine transporter (Homo sapiens, UniProt Q01959)
[5] = molecular target: T1, Endothelin-1 receptor (Homo sapiens, UniProt P25101)
T1 sequence (P25101 whole entry): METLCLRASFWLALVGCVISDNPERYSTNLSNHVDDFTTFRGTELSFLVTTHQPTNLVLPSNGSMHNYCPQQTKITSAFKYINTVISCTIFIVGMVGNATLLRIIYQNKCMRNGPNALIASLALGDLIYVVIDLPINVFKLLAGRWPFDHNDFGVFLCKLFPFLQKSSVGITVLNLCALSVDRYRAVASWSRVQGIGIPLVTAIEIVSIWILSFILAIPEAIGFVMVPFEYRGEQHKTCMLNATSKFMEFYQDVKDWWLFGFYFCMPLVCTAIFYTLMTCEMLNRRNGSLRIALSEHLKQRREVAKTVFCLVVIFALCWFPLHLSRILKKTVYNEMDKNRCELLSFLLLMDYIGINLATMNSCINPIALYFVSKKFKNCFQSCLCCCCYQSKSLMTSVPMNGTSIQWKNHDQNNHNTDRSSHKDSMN

[6] = molecular target: T2, Gastrin/cholecystokinin type B receptor (Homo sapiens, UniProt P32239)
T2 sequence (P32239 whole entry): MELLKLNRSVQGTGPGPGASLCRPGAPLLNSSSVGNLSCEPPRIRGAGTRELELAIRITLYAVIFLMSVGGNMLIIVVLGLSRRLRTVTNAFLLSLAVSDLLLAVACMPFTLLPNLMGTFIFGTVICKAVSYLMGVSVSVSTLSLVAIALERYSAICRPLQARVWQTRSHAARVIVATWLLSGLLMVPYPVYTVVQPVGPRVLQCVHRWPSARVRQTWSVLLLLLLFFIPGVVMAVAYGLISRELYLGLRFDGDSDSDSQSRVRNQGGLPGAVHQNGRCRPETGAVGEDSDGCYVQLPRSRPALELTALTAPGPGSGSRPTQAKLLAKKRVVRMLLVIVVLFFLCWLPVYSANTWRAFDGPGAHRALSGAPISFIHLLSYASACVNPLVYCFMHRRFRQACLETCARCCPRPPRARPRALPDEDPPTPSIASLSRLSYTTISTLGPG

[7] = molecular target: 5-hydroxytryptamine receptor 2B (Homo sapiens, UniProt P41595); format: functional, cell-based
[8] = molecular target: T3, Muscarinic acetylcholine receptor M2 (Homo sapiens, UniProt P08172); format: functional, cell-based
T3 sequence (P08172 whole entry): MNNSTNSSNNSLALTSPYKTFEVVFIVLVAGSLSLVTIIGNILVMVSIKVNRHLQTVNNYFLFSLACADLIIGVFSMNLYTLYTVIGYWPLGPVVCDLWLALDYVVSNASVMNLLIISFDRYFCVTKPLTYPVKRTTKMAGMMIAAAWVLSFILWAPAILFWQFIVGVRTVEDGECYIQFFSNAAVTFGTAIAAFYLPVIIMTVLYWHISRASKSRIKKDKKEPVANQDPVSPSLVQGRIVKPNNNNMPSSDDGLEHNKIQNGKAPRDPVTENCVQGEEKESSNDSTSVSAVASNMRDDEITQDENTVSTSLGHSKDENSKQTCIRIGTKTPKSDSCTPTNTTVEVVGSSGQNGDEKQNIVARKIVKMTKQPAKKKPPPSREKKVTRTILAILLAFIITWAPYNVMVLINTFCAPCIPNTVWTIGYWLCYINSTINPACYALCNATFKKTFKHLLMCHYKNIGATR

[9] = molecular target: Growth hormone secretagogue receptor type 1 (Homo sapiens, UniProt Q92847)
[10] = molecular target: T4, Cholecystokinin receptor type A (Homo sapiens, UniProt P32238)
T4 sequence (P32238 whole entry): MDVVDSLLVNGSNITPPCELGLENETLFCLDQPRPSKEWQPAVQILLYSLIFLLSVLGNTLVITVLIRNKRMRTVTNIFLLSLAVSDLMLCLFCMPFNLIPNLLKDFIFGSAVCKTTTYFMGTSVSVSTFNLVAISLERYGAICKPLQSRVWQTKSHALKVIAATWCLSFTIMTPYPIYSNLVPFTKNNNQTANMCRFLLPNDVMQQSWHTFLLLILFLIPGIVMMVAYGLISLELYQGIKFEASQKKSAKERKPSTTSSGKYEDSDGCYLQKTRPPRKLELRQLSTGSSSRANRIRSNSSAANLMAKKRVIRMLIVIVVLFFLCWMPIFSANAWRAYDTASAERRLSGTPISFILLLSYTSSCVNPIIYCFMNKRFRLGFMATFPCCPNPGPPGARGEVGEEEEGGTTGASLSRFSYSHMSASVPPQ

[11] = molecular target: cGMP-inhibited 3',5'-cyclic phosphodiesterase 3A (Homo sapiens, UniProt Q14432); format: functional
[12] = molecular target: T5, Alpha-2B adrenergic receptor (Homo sapiens, UniProt P18089)
T5 sequence (P18089 whole entry): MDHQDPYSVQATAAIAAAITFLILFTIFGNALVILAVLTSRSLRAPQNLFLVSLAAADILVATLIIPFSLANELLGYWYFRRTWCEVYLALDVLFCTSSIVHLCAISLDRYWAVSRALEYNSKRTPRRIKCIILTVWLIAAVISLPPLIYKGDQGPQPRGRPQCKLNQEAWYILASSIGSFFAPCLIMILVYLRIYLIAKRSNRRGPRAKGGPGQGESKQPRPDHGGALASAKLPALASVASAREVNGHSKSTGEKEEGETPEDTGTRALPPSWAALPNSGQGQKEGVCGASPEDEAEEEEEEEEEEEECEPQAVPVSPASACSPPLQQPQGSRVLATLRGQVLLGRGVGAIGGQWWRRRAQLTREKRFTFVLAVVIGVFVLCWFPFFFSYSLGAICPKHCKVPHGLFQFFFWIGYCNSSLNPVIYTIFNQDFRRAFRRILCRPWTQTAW

[13] = molecular target: D(3) dopamine receptor (Homo sapiens, UniProt P35462)
Further: assay procedure not described here.

Sequence of Growth hormone secretagogue receptor type 1 (Q92847 whole entry): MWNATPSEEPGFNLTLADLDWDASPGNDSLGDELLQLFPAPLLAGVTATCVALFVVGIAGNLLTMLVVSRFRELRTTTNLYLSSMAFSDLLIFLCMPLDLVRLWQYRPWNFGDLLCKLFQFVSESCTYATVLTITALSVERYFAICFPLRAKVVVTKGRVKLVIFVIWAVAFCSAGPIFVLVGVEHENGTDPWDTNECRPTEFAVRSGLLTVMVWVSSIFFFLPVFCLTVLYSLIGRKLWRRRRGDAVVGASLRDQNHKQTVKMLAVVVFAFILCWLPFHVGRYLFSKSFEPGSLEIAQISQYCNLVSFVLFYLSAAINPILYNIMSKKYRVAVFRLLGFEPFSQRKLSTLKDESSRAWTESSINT
Sequence of Sodium-dependent noradrenaline transporter (P23975 whole entry): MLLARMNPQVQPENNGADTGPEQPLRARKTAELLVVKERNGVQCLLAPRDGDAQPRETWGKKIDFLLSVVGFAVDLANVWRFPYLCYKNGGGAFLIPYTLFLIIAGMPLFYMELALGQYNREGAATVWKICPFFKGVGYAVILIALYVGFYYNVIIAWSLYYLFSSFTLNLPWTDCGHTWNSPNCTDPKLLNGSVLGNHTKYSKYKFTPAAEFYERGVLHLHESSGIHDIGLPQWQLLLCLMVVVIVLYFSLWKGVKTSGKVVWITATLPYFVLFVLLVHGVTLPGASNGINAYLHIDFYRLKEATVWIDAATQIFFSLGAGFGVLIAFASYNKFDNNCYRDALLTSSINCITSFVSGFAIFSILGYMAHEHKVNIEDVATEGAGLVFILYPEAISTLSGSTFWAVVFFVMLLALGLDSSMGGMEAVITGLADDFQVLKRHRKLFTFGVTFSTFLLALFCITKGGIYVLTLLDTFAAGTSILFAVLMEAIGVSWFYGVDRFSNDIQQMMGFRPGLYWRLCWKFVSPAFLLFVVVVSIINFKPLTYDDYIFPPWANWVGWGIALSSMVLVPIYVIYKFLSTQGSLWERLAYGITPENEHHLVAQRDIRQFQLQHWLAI
Sequence of 5-hydroxytryptamine receptor 2B (P41595 whole entry): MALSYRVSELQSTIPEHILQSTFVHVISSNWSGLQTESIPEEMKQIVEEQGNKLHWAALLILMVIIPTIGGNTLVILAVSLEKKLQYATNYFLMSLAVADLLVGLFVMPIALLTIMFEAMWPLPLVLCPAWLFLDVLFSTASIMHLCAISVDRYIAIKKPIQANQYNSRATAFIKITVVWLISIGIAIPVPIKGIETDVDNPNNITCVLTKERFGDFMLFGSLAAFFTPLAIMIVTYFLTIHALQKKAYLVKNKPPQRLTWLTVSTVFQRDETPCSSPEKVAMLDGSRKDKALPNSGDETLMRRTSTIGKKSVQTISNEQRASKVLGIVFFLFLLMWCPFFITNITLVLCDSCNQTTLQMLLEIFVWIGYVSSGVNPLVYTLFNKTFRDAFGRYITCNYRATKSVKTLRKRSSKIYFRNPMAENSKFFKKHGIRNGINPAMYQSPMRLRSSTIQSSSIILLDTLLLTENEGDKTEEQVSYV
Sequence of Sodium-dependent dopamine transporter (Q01959 whole entry): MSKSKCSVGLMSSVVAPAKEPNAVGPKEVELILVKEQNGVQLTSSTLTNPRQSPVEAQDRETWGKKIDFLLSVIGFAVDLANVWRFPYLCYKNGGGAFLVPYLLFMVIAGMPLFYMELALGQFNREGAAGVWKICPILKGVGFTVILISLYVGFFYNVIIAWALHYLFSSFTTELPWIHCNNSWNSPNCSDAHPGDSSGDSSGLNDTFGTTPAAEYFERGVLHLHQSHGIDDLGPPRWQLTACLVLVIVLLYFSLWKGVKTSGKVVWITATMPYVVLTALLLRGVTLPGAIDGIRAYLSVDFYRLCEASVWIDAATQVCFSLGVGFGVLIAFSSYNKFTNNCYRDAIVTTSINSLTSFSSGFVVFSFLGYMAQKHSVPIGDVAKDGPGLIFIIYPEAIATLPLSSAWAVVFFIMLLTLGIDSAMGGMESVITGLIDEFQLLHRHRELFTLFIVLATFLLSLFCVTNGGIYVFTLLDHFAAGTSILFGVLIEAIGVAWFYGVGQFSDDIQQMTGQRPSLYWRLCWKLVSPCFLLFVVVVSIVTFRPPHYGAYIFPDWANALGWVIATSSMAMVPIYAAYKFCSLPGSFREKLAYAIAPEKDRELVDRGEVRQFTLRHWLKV
Sequence of Motilin receptor (O43193 whole entry): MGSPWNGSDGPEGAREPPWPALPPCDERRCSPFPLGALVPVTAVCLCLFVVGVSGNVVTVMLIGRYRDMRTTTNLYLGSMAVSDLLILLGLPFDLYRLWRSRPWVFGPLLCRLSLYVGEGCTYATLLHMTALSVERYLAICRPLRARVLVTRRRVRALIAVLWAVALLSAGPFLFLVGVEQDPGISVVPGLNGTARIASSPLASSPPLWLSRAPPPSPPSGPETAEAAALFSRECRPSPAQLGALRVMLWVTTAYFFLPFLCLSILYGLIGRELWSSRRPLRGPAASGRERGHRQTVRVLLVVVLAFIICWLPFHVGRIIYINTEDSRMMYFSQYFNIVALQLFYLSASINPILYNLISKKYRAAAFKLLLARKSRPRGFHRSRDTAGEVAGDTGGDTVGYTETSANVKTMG
Sequence of cGMP-inhibited 3',5'-cyclic phosphodiesterase 3A (Q14432 whole entry): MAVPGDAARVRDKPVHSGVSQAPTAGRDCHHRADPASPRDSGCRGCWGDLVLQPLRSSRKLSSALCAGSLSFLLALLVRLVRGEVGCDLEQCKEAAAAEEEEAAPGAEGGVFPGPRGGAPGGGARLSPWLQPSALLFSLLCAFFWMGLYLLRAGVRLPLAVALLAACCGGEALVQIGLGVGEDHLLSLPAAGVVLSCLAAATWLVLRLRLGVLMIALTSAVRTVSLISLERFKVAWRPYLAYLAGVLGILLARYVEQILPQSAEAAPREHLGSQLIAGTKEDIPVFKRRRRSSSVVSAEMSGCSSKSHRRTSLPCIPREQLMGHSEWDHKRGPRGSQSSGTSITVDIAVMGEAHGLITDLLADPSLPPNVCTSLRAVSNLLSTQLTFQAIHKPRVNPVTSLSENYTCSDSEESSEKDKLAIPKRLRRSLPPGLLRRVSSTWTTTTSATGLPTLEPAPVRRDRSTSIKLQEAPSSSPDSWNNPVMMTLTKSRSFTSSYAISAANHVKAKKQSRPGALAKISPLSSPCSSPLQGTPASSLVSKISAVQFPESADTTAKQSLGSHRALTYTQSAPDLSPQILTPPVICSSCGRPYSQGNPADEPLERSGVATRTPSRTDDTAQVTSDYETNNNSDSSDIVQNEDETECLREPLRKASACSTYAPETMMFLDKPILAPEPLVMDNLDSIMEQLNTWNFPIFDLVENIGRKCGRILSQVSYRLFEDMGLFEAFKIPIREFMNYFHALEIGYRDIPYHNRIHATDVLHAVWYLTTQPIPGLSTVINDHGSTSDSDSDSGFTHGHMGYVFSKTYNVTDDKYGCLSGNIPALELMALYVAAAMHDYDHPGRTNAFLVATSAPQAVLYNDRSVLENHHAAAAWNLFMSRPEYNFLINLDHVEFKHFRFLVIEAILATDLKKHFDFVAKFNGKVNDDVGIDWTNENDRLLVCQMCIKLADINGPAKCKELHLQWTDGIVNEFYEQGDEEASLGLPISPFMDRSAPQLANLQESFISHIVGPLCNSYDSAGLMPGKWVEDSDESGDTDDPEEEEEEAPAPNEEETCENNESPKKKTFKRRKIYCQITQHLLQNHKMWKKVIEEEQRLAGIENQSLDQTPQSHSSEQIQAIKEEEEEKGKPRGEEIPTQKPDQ
Sequence of Vasopressin V1a receptor (P37288 whole entry): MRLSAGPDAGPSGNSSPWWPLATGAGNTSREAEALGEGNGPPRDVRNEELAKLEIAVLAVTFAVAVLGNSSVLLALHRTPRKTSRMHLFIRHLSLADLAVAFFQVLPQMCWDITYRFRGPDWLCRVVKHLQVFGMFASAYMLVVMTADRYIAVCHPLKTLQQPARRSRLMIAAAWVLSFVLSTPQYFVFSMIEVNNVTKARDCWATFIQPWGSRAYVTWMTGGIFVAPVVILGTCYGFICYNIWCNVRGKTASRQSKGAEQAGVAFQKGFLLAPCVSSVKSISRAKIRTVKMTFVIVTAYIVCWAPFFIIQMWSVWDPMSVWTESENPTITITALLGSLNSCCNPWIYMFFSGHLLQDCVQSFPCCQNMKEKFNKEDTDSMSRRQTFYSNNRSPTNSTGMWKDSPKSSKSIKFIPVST
Sequence of D(3) dopamine receptor (P35462 whole entry): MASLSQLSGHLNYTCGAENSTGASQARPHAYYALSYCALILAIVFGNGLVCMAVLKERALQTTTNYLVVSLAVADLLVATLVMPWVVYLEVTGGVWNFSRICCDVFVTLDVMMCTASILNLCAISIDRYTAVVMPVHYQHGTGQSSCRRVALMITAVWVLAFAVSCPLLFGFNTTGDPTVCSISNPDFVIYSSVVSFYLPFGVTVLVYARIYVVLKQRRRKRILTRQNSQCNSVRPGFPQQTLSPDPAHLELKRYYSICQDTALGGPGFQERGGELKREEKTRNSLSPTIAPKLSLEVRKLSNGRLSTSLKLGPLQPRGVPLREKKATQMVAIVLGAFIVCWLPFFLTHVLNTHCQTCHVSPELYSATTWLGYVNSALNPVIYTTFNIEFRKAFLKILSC

SMILES | AC50 [1] | AC50 [2] | AC50 [3] | AC50 [4] | AC50 [5] | AC50 [6] | AC50 [7] | AC50 [8] | AC50 [9] | AC50 [10] | AC50 [11] | AC50 [12] | AC50 [13]
COc1ccc(C(=O)Nc2ccccc2CCC2CCCCN2C)cc1 (centres undefined) [ENCAINIDE] | > 10 µM | > 10 µM | > 10 µM | > 10 µM | > 30 µM | > 30 µM | > 10 µM | > 10 µM | > 30 µM | > 30 µM | > 30 µM | > 10 µM | > 10 µM
CCOc1ccccc1OCC1CNCCO1 (centres undefined) [VILOXAZINE] | > 10 µM | 0.97 µM | > 10 µM | > 10 µM | > 30 µM | > 30 µM | > 10 µM | > 10 µM | > 30 µM | > 30 µM | > 30 µM | > 10 µM | > 10 µM
CN(C)CCc1c[nH]c2ccc(C[C@H]3COC(=O)N3)cc12 [ZOLMITRIPTAN] | > 30 µM | > 30 µM | > 30 µM | > 30 µM | > 30 µM | > 30 µM | > 30 µM | > 30 µM | > 30 µM | > 30 µM | > 30 µM | > 30 µM | > 30 µM
